Data from ChEMBL document CHEMBL1240356, “Efficacy profiles of daptomycin for treatment of invasive and noninvasive pulmonary infections with Streptococcus pneumoniae” (2010).
Calls of active or inactive are those of the source. The calls are words filed in the database; no cut-off is given here.

Key:
Streptococcus pneumoniae [1] = test: Antibacterial activity against 1.5 x 10^7 CFU Streptococcus pneumoniae serotype 2 infected in therapeutic C57BL/6 mouse model assessed as effect on leukocytes infiltration in BALF at 6 mg/kg, ip measured on day 3 post infection; format: functional, organism-based; set-up: dose 6 mg/kg
Streptococcus pneumoniae [2] = test: Antibacterial activity against high dose 1.5 x 10^7 CFU Streptococcus pneumoniae serotype 2 infected in semitherapeutic C57BL/6 mouse model assessed as bacterial count in lung at 6 mg/kg, ip measured after 2 days post infection; format: functional; conditions: route intraperitoneal
Streptococcus pneumoniae [3] = test: Antibacterial activity against high dose 1.5 x 10^7 CFU Streptococcus pneumoniae serotype 19 infected in semitherapeutic C57BL/6 mouse model assessed as bacterial count in lung at 6 mg/kg, ip measured after 5 day post infection; format: functional; conditions: route intraperitoneal
Streptococcus pneumoniae [4] = test: Antibacterial activity against high dose 1.5 x 10^7 CFU Streptococcus pneumoniae serotype 2 infected in semitherapeutic C57BL/6 mouse model assessed as bacterial count in blood at 6 mg/kg, ip measured after 2 days post infection; format: functional; conditions: route intraperitoneal
Streptococcus pneumoniae [5] = test: Antibacterial activity against 5 x 10^6 CFU Streptococcus pneumoniae serotype 2 infected in semitherapeutic C57BL/6 mouse model assessed as bacterial count in lung at 6 mg/kg, ip measured after 1 day post infection; format: functional; conditions: route intraperitoneal
Streptococcus pneumoniae [6] = test: Antibacterial activity against high dose 1.5 x 10^7 CFU Streptococcus pneumoniae serotype 2 infected in therapeutic C57BL/6 mouse model assessed as reduction of bacteremia at 6 mg/kg, ip measured after 5 day post infection; format: functional, organism-based; set-up: dose 6 mg/kg
Streptococcus pneumoniae [7] = test: Antibacterial activity against high dose 1.5 x 10^7 CFU Streptococcus pneumoniae serotype 2 infected in semitherapeutic C57BL/6 mouse model assessed as bacterial count in lung at 6 mg/kg, ip measured after 1 day post infection; format: functional; conditions: route intraperitoneal
Streptococcus pneumoniae [8] = test: Antibacterial activity against high dose 1.5 x 10^7 CFU Streptococcus pneumoniae serotype 2 infected in semitherapeutic C57BL/6 mouse model assessed as bacterial count in lung at 6 mg/kg, ip measured after 5 day post infection; format: functional; conditions: route intraperitoneal
Streptococcus pneumoniae [9] = test: Antibacterial activity against 5 x 10^6 CFU Streptococcus pneumoniae serotype 2 infected in semitherapeutic C57BL/6 mouse model assessed as bacterial count in spleen at 6 mg/kg, ip measured after 1 day post infection; format: functional; conditions: route intraperitoneal
Streptococcus pneumoniae [10] = test: Antibacterial activity against high dose 1.5 x 10^7 CFU Streptococcus pneumoniae serotype 19 infected in semitherapeutic C57BL/6 mouse model assessed as bacterial count in lung at 6 mg/kg, ip measured after 3 days post infection; format: functional; conditions: route intraperitoneal
Streptococcus pneumoniae [11] = test: Antibacterial activity against 1.5 x 10^7 CFU Streptococcus pneumoniae serotype 2 infected in therapeutic C57BL/6 mouse model assessed as increase in compound level in BALF at 6 mg/kg, ip measured on day 3 post infection; format: functional, organism-based; set-up: dose 6 mg/kg
Streptococcus pneumoniae [12] = test: Antibacterial activity against high dose 1.5 x 10^7 CFU Streptococcus pneumoniae serotype 19 infected in semitherapeutic C57BL/6 mouse model assessed as reduction of bacteremia at 6 mg/kg, ip measured after 1 day post infection; format: functional, organism-based; set-up: dose 6 mg/kg
Streptococcus pneumoniae [13] = test: Antibacterial activity against low dose 5 x 10^6 CFU Streptococcus pneumoniae serotype 2 infected in semitherapeutic C57BL/6 mouse model at 6 mg/kg, ip over a period of 14 days; format: functional, organism-based; set-up: dose 6 mg/kg
Streptococcus pneumoniae [14] = test: Antibacterial activity against 5 x 10^6 CFU Streptococcus pneumoniae serotype 2 infected in semitherapeutic C57BL/6 mouse model assessed as bacterial count in liver at 6 mg/kg, ip measured after 1 day post infection; format: functional; conditions: route intraperitoneal
Streptococcus pneumoniae [15] = test: Antibacterial activity against high dose 1.5 x 10^7 CFU Streptococcus pneumoniae serotype 2 infected in semitherapeutic C57BL/6 mouse model assessed as bacterial count in spleen at 6 mg/kg, ip measured after 1 day post infection; format: functional; conditions: route intraperitoneal
Streptococcus pneumoniae [16] = test: Antibacterial activity against low dose 5 x 10^6 CFU Streptococcus pneumoniae serotype 19 infected in semitherapeutic C57BL/6 mouse model assessed as bacteremic mouse at 6 mg/kg, ip measured after 1 day post infection; format: functional, organism-based; set-up: dose 6 mg/kg
Streptococcus pneumoniae [17] = test: Antibacterial activity against low dose 5 x 10^6 CFU Streptococcus pneumoniae serotype 19 infected in semitherapeutic C57BL/6 mouse model assessed as bacteremic mouse at 6 mg/kg, ip measured after 5 day post infection; format: functional, organism-based; set-up: dose 6 mg/kg
Streptococcus pneumoniae [18] = test: Antibacterial activity against 1.5 x 10^7 CFU Streptococcus pneumoniae serotype 2 infected in therapeutic C57BL/6 mouse model assessed as effect on lung permeability at 6 mg/kg, ip measured on day 3 post infection; format: functional, organism-based; set-up: dose 6 mg/kg
Streptococcus pneumoniae [19] = test: Antibacterial activity against 1.5 x 10^7 CFU Streptococcus pneumoniae serotype 19 infected in therapeutic C57BL/6 mouse model assessed as effect on lung permeability at 6 mg/kg, ip measured on day 3 post infection; format: functional, organism-based; set-up: dose 6 mg/kg
Streptococcus pneumoniae [20] = test: Antibacterial activity against high dose 1.5 x 10^7 CFU Streptococcus pneumoniae serotype 2 infected in semitherapeutic C57BL/6 mouse model assessed as reduction of bacteremiar at 6 mg/kg, ip measured after 3 days post infection; format: functional, organism-based; set-up: dose 6 mg/kg
Streptococcus pneumoniae [21] = test: Antibacterial activity against high dose 1.5 x 10^7 CFU Streptococcus pneumoniae serotype 19 infected in semitherapeutic C57BL/6 mouse model assessed as bacterial count in lung at 6 mg/kg, ip measured after 4 days post infection; format: functional; conditions: route intraperitoneal
Streptococcus pneumoniae [22] = test: Antibacterial activity against high dose 1.5 x 10^7 CFU Streptococcus pneumoniae serotype 2 infected in semitherapeutic C57BL/6 mouse model assessed as bacterial count in lung at 6 mg/kg, ip measured after 10 day post infection; format: functional; conditions: route intraperitoneal
Streptococcus pneumoniae [23] = test: Antibacterial activity against 5 x 10^6 CFU Streptococcus pneumoniae serotype 2 infected in semitherapeutic C57BL/6 mouse model assessed as bacterial count in lung at 6 mg/kg, ip measured after 3 days post infection; format: functional; conditions: route intraperitoneal
Streptococcus pneumoniae [24] = test: Antibacterial activity against high dose 1.5 x 10^7 CFU Streptococcus pneumoniae serotype 2 infected in therapeutic C57BL/6 mouse model assessed as bacterial count in blood at 6 mg/kg, ip measured after 4 days post infection; format: functional; conditions: route intraperitoneal
Streptococcus pneumoniae [25] = test: Antibacterial activity against low dose 5 x 10^6 CFU Streptococcus pneumoniae serotype 19 infected in semitherapeutic C57BL/6 mouse model assessed as bacterial count in lung at 6 mg/kg, ip measured after 3 days post infection; format: functional; conditions: route intraperitoneal
Streptococcus pneumoniae [26] = test: Antibacterial activity against high dose 1.5 x 10^7 CFU Streptococcus pneumoniae serotype 2 infected in semitherapeutic C57BL/6 mouse model assessed as reduction of bacteremia at 6 mg/kg, ip measured after 10 day post infection; format: functional, organism-based; set-up: dose 6 mg/kg
Streptococcus pneumoniae [27] = test: Antibacterial activity against low dose 5 x 10^6 CFU Streptococcus pneumoniae serotype 2 infected in semitherapeutic C57BL/6 mouse model assessed as bacterial count in lung at 6 mg/kg, ip measured after 5 day post infection; format: functional; conditions: route intraperitoneal
Streptococcus pneumoniae [28] = test: Antibacterial activity against 1.5 x 10^7 CFU Streptococcus pneumoniae serotype 19 infected in therapeutic C57BL/6 mouse model assessed as effect on leukocytes infiltration in BALF at 6 mg/kg, ip measured on day 3 post infection; format: functional, organism-based; set-up: dose 6 mg/kg
Streptococcus pneumoniae [29] = test: Antibacterial activity against high dose 1.5 x 10^7 CFU Streptococcus pneumoniae serotype 19 infected in semitherapeutic C57BL/6 mouse model assessed as bacteremic mice at 6 mg/kg, ip measured after 5 day post infection; format: functional, organism-based; set-up: dose 6 mg/kg
Streptococcus pneumoniae [30] = test: Antibacterial activity against high dose 1.5 x 10^7 CFU Streptococcus pneumoniae serotype 2 infected in semitherapeutic C57BL/6 mouse model assessed as bacterial count in blood at 6 mg/kg, ip measured after 1 day post infection; format: functional; conditions: route intraperitoneal

Question: For `CCCCCCCCCC(=O)N[C@@H](Cc1c[nH]c2ccccc12)C(=O)N[C@H](CC(N)=O)C(=O)N[C@@H](CC(=O)O)C(=O)N[C@@H]1C(=O)NCC(=O)N[C@@H](CCCN)C(=O)N[C@@H](CC(=O)O)C(=O)N[C@H](C)C(=O)N[C@@H](CC(=O)O)C(=O)NCC(=O)N[C@H](CO)C(=O)N[C@@H]([C@H](C)CC(=O)O)C(=O)N[C@@H](CC(=O)c2ccccc2N)C(=O)O[C@@H]1C`, which Activity (Streptococcus pneumoniae [1]) is on record?
Answer: Active

Question: And the log10cfu (Streptococcus pneumoniae [2])?
Answer: 4.2

Question: And the log10cfu (Streptococcus pneumoniae [3])?
Answer: 4.7

Question: And the log10cfu (Streptococcus pneumoniae [4])?
Answer: 0.1

Question: And the log10cfu (Streptococcus pneumoniae [5])?
Answer: 5.4

Question: And the Activity (Streptococcus pneumoniae [6])?
Answer: Active

Question: What about the log10cfu (Streptococcus pneumoniae [7]) of the same compound?
Answer: 6

Question: And the log10cfu (Streptococcus pneumoniae [8])?
Answer: 2.2

Question: And the log10cfu (Streptococcus pneumoniae [9])?
Answer: 2.2

Question: And the log10cfu (Streptococcus pneumoniae [10])?
Answer: 7.1

Question: And the Activity (Streptococcus pneumoniae [11])?
Answer: inactive

Question: And the Activity (Streptococcus pneumoniae [12])?
Answer: Active

Question: And the Activity (Streptococcus pneumoniae [13])?
Answer: Active

Question: And the log10cfu (Streptococcus pneumoniae [14])?
Answer: 1.8

Question: And the log10cfu (Streptococcus pneumoniae [15])?
Answer: 1.4

Question: And the Activity (Streptococcus pneumoniae [16])?
Answer: Active

Question: And the Activity (Streptococcus pneumoniae [17])?
Answer: Active

Question: And the Activity (Streptococcus pneumoniae [18])?
Answer: Active

Question: What about the Activity (Streptococcus pneumoniae [19]) of the same compound?
Answer: Active

Question: What about the Activity (Streptococcus pneumoniae [20]) of the same compound?
Answer: Active

Question: What about the log10cfu (Streptococcus pneumoniae [21]) of the same compound?
Answer: 4.5

Question: What about the log10cfu (Streptococcus pneumoniae [22]) of the same compound?
Answer: 2.9

Question: What about the log10cfu (Streptococcus pneumoniae [23]) of the same compound?
Answer: 3.8

Question: What about the log10cfu (Streptococcus pneumoniae [24]) of the same compound?
Answer: 2.6

Question: And the log10cfu (Streptococcus pneumoniae [25])?
Answer: 5.5

Question: And the Activity (Streptococcus pneumoniae [26])?
Answer: Active

Question: What about the log10cfu (Streptococcus pneumoniae [27]) of the same compound?
Answer: 3.2

Question: And the Activity (Streptococcus pneumoniae [28])?
Answer: Active

Question: And the Activity (Streptococcus pneumoniae [29])?
Answer: Active

Question: What about the log10cfu (Streptococcus pneumoniae [30]) of the same compound?
Answer: 2.6
